Experiments:
Test in all cases: drug activity profiling cytotoxicity
Assay type in all cases: cell-based
769-P = settings: Homo sapiens; 769-P cell line, Kidney; read-out: Aza-T-dCyd IC50
Protocol: (§1) To obtain a biomarker for Aza-T-dCyd, drug activity profiling analysis was performed to evaluate the cytotoxicity of 200 cell lines.
(§2) The drug responsiveness analysis of Aza-T-dCyd through drug activity profiling and genomic analysis of 200 cell lines confirmed the potent efficacy of Aza-T-dCyd in various solid tumors (Table 2).

A172 = settings: Homo sapiens, A 172; A172 cell line, CNS (Glioma); read-out: Aza-T-dCyd IC50
Protocol: as §1, §2

C-33A = settings: Homo sapiens; C-33A cell line, Female GU (Cervix); read-out: Aza-T-dCyd IC50
Protocol: as §1, §2

C-4 II = settings: Homo sapiens; C-4 II cell line, Female GU (Cervix); read-out: Aza-T-dCyd IC50
Protocol: as §1, §2

CA46 = settings: Homo sapiens; CA46 cell line, Burkitt's lymphoma; read-out: Aza-T-dCyd IC50
Protocol: as §1, §2

CML-T1 = CML-T1 cell line, read-out: Aza-T-dCyd IC50
Protocol: as §1, §2

Colo 320DM = settings: Homo sapiens; Colo 320DM cell line, Colon; read-out: Aza-T-dCyd IC50
Protocol: as §1, §2

DB = settings: Homo sapiens; DB cell line, B-cell lymphoma; read-out: Aza-T-dCyd IC50
Protocol: as §1, §2

EFM-19 = settings: Homo sapiens; EFM-19 cell line, Breast; read-out: Aza-T-dCyd IC50
Protocol: as §1, §2

EM-2 = settings: Homo sapiens; EM-2 cell line, CML; read-out: Aza-T-dCyd IC50
Protocol: as §1, §2

GA-10 = settings: Homo sapiens; GA-10 cell line, Burkitt's lymphoma; read-out: Aza-T-dCyd IC50
Protocol: as §1, §2

HCT-15 = settings: Homo sapiens; HCT-15 cell line, Colon; read-out: Aza-T-dCyd IC50
Protocol: as §1, §2

HT-1080 = settings: Homo sapiens; HT-1080 cell line, Sarcoma; read-out: Aza-T-dCyd IC50
Protocol: as §1, §2

HT-3 = settings: Homo sapiens; HT-3 cell line, Female GU (Cervix); read-out: Aza-T-dCyd IC50
Protocol: as §1, §2

Hs 766T = settings: Hs766T; Hs 766T cell line, Pancreas; read-out: Aza-T-dCyd IC50
Protocol: as §1, §2

J-RT3-T3-5 = settings: Homo sapiens; J-RT3-T3-5 cell line, T-cell Lymphoma; read-out: Aza-T-dCyd IC50
Protocol: as §1, §2

KHOS-240S = KHOS-240S cell line, Bone (Osteosarcoma); read-out: Aza-T-dCyd IC50
Protocol: as §1, §2

MDA MB 415 = settings: Homo sapiens; MDA MB 415 cell line, Breast; read-out: Aza-T-dCyd IC50
Protocol: as §1, §2

MHH-PREB-1 = settings: Homo sapiens; MHH-PREB-1 cell line, B-cell lymphoma; read-out: Aza-T-dCyd IC50
Protocol: as §1, §2

NCI-H292 = settings: Homo sapiens; NCI-H292 cell line, Lung (NSCLC); read-out: Aza-T-dCyd IC50
Protocol: as §1, §2

NCI-H69 = settings: Homo sapiens; NCI-H69 cell line, Lung (SCLC); read-out: Aza-T-dCyd IC50
Protocol: as §1, §2

OE21 = OE21 cell line, Head and Neck; read-out: Aza-T-dCyd IC50
Protocol: as §1, §2

Raji = settings: Homo sapiens; Raji cell line, Burkitt's lymphoma; read-out: Aza-T-dCyd IC50
Protocol: as §1, §2

SCC-4 = settings: Homo sapiens; SCC-4 cell line, Head and Neck; read-out: Aza-T-dCyd IC50
Protocol: as §1, §2

SH-4 = settings: Homo sapiens; SH-4 cell line, Skin (Melanoma); read-out: Aza-T-dCyd IC50
Protocol: as §1, §2

SK-NEP-1 = settings: Homo sapiens; SK-NEP-1 cell line, Kidney; read-out: Aza-T-dCyd IC50
Protocol: as §1, §2

SKOV3 = settings: Homo sapiens, SK-OV-3; SKOV3 cell line, Female GU (Ovary); read-out: Aza-T-dCyd IC50
Protocol: as §1, §2

SU-DHL-8 = settings: Homo sapiens; SU-DHL-8 cell line, B-cell lymphoma; read-out: Aza-T-dCyd IC50
Protocol: as §1, §2

U-138MG = settings: Homo sapiens, U138-MG; U-138MG cell line, CNS (Glioma); read-out: Aza-T-dCyd IC50
Protocol: as §1, §2

VA-ES-BJ = VA-ES-BJ cell line, Sarcoma; read-out: Aza-T-dCyd IC50
Protocol: as §1, §2

ZR-75-1 = settings: Homo sapiens; ZR-75-1 cell line, Breast; read-out: Aza-T-dCyd IC50
Protocol: as §1, §2

Question: What does the source list for `Nc1ncn([C@H]2CC(O)[C@@H](CO)S2)c(=O)n1` (stereo partly shown) [Aza-T-dCyd, 4′-thio-5-aza-2′-deoxycytidine]?
Answer: IC50 (769-P): 65.7 nM; IC50 (A172): > 10000 nM; IC50 (C-33A): 497 nM; IC50 (C-4 II): 773 nM; IC50 (CA46): 25.5 nM; IC50 (CML-T1): 109 nM; IC50 (Colo 320DM): 92.3 nM; IC50 (DB): 135 nM; IC50 (EFM-19): 3950 nM; IC50 (EM-2): 255 nM; IC50 (GA-10): 33.5 nM; IC50 (HCT-15): 1020 nM; IC50 (HT-1080): 120 nM; IC50 (HT-3): 818 nM; IC50 (Hs 766T): 9400 nM; IC50 (J-RT3-T3-5): 106 nM; IC50 (KHOS-240S): 254 nM; IC50 (MDA MB 415): > 10000 nM; IC50 (MHH-PREB-1): 38.9 nM; IC50 (NCI-H292): 194 nM; IC50 (NCI-H69): > 10000 nM; IC50 (OE21): 152 nM; IC50 (Raji): 75.2 nM; IC50 (SCC-4): 2860 nM; IC50 (SH-4): 698 nM; IC50 (SK-NEP-1): > 10000 nM; IC50 (SKOV3): 2920 nM; IC50 (SU-DHL-8): 70.6 nM; IC50 (U-138MG): > 10000 nM; IC50 (VA-ES-BJ): 241 nM; IC50 (ZR-75-1): > 10000 nM
